Test results published in US4113850A, “Composition for the diagnostic visualization of neoplastic tissues” (Solco Basel AG, priority 1974, dated 1978).
Values joined by “and” are separate entries in the source; they are usually repeats but may differ in a detail not shown here. Identical values can stand only once. Like-named read-outs stand apart in the source and are kept apart here.

Legend:
brain tumor [1] = conditions: cited from earlier work
[2] = cited from earlier work; for Ray dose for the person examined: radiopharmaceuticals used up to now
[3] = tested on: neoplastic tissues (tumors and metastases); conditions: radiopharmaceuticals used up to now; cited from earlier work
brain tumor [4] = conditions: literature sources 1-2 of Table 2, cited from earlier work
[5] = in vivo, cited from earlier work
[6] = Stability of the complexes; assay type: physicochemical; conditions: in solution

For `COC([CH2][197Hg+])CNC(N)=O.[Cl-]` (stereo not drawn) [197Hg-Chlormerodrin, ^197 Hg-chlormerodrin], the “Human external tumor brain quotient (in vivo)” value (brain tumor [1]; literature sources 1-6 of Table 1) is listed as 1.2 - 8.7 : 1 and 1.2 - 3.1 : 1, the “Ray dose of the critical organs: Kidney” value ([2]; Kidney, hitherto used substances) is listed as 4370 - 19400 mrad/mCurie and the “Ray dose for the person examined” value [2] is listed as “high ray dose”. For the same compound, the Tumor affinity [3] was “low and uncertain tumor affinity”.
For `[O]=[99Tc](=[O])(=[O])[O-]` [Example 99mTcO4, ^99m Tc-pertechnetate], the “Human internal tumor brain quotient (after autopsy or on an operation preparation)” value (brain tumor [4]) is given as 1.8 - 5.3 : 1, the “Human internal tumor brain quotient (after autopsy or on an operation preparation)” value (brain tumor [4]; listed as 99mTcO) is given as 0 - 4.3 : 1 and the “Human external tumor brain quotient (in vivo)” value (brain tumor [1]; literature sources 1-6 of Table 1, listed as 99mTcO.sbsb.4) is given as 1.7 : 1 and 1.3 : 1 and 1.2 - 2.5 : 1. The “Ray dose of the critical organs: Blood” value ([2]; Blood, hitherto used substances) was 17 - 47 mrad/mCurie, the “Ray dose of the critical organs: Colon” value ([2]; Colon, hitherto used substances) was 150 - 290 mrad/mCurie and the “Ray dose of the critical organs: Stomach” value ([2]; Stomach, hitherto used substances) was 40 - 320 mrad/mCurie. For the same compound, the “Ray dose of the critical organs: Thyroid” value ([2]; Thyroid, hitherto used substances) was 100 - 270 mrad/mCurie, the Concentration in organs ([5]; listed as 99m Tc-pertechnetate) was “particularly high concentrations occur in the thyroid but also in the plexus chorioideus (brain), in the salivary glands and in the gastric mucosa” and the Concentration in organs ([5]; listed as pertechnetate) was “concentrates above all in the thyroid”.
For `O=C([O-])CC(O)(CC(=O)[O-])C(=O)[O-].[67Ga+3]` [^67 Gallium citrate], the “Ray dose for the person examined” value [2] is listed as “high ray dose” and the Tumor affinity [3] is listed as “low and uncertain tumor affinity”.
In the case of `O=[75Se]([O-])[O-].[Na+].[Na+]` [^75 Se-sodium selenite], the “Ray dose for the person examined” value [2] is given as “high ray dose” and the Tumor affinity [3] is given as “low and uncertain tumor affinity”.
For `COC(CNC(N)=O)[CH2][203Hg][Cl]` (stereo not drawn) [^203 Hg-chlormerodrin], the “Ray dose for the person examined” value [2] is listed as “high ray dose” and the Tumor affinity [3] is listed as “low and uncertain tumor affinity”.
In the case of ^111 indium-citrate complex [Example 7], the Stability of complex [6] is reported as “stable”.
With “tin-technetium-isocitrate complex [Example 1]” the Stability of complex [6] was “stable”.
